Test results: ChEMBL document CHEMBL1201862, “PubChem BioAssay data set” (2004)
Activity calls are given as the source filed them. For most assays here, no stated cut-off is given here; in the data, actives have a measured EC50 and inactives only a lower limit.

What was measured:
[1] = biological target: T1, Replicative DNA helicase DnaB (Mycobacterium tuberculosis, UniProt P9WMR3); assay: DnaB intein splicing inhibitors, dose response, biochemical, cell-free fluorescence (AID 449749); type: functional
T1 sequence (P9WMR3 whole entry): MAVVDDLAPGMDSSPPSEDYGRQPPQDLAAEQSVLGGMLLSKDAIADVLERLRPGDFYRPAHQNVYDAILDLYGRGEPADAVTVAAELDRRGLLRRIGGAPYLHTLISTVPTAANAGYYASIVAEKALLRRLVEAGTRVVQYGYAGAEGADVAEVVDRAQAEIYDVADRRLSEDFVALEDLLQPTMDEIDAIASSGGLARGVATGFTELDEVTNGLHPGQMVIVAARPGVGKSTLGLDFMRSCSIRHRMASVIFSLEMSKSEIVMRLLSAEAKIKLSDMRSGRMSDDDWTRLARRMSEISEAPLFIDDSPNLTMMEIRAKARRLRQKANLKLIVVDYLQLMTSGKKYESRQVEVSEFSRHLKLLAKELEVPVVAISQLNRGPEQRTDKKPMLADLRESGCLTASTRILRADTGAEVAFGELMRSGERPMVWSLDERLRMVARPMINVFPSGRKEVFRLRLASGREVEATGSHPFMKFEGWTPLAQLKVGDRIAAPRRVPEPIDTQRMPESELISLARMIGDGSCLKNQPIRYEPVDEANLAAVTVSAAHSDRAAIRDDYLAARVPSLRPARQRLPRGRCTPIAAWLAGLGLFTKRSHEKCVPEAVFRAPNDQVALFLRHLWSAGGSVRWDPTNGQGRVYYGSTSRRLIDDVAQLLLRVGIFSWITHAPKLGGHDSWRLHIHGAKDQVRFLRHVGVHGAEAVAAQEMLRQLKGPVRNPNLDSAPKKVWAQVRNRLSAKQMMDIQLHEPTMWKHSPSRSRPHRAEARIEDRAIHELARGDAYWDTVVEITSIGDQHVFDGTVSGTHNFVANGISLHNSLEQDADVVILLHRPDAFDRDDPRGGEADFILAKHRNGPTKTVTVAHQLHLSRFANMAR

[2] = biological target: T2, Protein RecA (Mycobacterium tuberculosis, UniProt P9WHJ3); assay: Fluorescence Cell-Free Homogeneous Dose Retest to Identify Inhibitors of RecA-Intein Splicing Activity. [Related pubchem assays (depositor defined):AID2097, AID2223, AID489010, AID492950]; type: functional
T2 sequence (P9WHJ3 whole entry): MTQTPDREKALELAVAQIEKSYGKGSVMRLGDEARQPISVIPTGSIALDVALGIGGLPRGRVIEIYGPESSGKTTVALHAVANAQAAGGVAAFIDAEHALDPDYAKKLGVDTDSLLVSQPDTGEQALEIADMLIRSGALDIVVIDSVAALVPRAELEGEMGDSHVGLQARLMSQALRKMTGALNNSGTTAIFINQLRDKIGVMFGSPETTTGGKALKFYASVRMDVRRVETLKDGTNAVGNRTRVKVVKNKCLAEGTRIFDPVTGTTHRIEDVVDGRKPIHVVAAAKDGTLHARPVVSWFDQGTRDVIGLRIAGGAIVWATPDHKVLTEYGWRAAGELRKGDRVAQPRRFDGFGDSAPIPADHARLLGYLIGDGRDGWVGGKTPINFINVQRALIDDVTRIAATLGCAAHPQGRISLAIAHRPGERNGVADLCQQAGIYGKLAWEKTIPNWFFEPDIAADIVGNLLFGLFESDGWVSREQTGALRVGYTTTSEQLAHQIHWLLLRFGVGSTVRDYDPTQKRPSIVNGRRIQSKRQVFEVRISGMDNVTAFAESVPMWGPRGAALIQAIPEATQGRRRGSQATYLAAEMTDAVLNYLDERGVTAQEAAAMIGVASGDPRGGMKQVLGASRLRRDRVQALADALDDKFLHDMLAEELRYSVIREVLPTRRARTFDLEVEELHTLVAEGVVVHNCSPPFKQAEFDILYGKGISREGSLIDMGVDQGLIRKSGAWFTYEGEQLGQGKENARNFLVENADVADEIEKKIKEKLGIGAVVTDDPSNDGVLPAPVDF

[3] = biological target: T3, High affinity choline transporter 1 (Homo sapiens, UniProt Q9GZV3); assay: human choline transporter blockers, potency – cell-based, 5-point CRC, membrane potential dye, dose response (AID 504840); type: functional
T3 sequence (Q9GZV3 whole entry): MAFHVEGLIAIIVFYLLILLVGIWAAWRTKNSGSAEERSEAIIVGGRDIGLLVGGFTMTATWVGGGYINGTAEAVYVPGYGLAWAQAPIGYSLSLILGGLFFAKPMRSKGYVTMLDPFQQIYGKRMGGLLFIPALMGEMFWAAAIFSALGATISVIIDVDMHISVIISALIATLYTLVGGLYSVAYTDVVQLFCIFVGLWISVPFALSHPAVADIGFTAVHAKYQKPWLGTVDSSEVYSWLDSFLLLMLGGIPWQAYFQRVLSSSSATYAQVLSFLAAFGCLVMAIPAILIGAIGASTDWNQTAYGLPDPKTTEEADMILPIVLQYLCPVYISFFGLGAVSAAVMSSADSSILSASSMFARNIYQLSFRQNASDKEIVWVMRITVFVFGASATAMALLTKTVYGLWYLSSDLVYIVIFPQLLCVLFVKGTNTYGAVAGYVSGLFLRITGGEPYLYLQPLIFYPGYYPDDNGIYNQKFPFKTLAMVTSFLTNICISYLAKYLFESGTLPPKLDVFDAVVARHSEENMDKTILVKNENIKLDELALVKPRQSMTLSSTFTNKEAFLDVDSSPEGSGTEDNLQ

[4] = Luminescence Cell-Based Dose Confirmation HTS to Identify Activators of 5'UTR Stem-Loop Driven Alpha-Synuclein mRNA Translation in H4 Neuroglioblastoma Cells. [Related pubchem assays: 1829 (Project Summary), 1814 (Primary HTS)]; type: functional
[5] = Luminescence Cell-Based Dose Response HTS to Identify Activators of Luciferase Translation or Activity in H4 […] Cells. [Related pubchem assays: 1829 (Project Summary), 1814 (Primary HTS)]; type: functional
[6] = tested on: H4; assay: Luminescence Cell-Based Dose Response HTS to Identify Activators of 5'UTR Stem-Loop Driven Prion Protein mRNA Translation in H4 Neuroglioblastoma Cells. [Related pubchem assays: 1829 (Project Summary), 1814 (Primary HTS)]; type: functional; settings: Homo sapiens
[7] = biological target: T4, Heat shock factor protein 1 (Mus musculus, UniProt P38532); assay: enhancement of HSF1-driven luciferase signal – cell-based, NIH3T3, luminescence, dose retest, confirmation (AID 435004); type: functional;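 further: stress induced by proteasome inhibitor MG132 added 30 min after compound; luciferase reporter driven by HSF1 response element in NIH3T3 cells; actives raise luminescence as potentiators of the MG132 stress response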
T4 sequence (P38532 whole entry): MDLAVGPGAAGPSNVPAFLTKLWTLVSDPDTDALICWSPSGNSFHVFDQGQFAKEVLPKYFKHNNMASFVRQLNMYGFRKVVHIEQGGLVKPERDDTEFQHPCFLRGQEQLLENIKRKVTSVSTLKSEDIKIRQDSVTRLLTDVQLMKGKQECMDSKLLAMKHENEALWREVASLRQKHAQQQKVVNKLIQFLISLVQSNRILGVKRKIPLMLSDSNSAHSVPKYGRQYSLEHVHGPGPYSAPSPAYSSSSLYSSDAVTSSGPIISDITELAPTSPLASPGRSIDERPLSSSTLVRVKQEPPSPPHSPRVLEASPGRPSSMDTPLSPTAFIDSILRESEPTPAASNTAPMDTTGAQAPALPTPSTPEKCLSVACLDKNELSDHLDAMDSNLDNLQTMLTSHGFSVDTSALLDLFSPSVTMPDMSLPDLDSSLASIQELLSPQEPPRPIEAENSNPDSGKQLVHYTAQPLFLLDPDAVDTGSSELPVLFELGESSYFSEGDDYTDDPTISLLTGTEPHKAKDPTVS

[8] = biological target: T5, Streptokinase A (Streptococcus pyogenes serotype M1, UniProt P10520); assay: viability-normalized secreted streptokinase activity reduction – plasminogen activation absorbance, OD405, dose response (AID 1914); type: functional, Streptococcus pyogenes M1 GAS;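 further: secreted streptokinase activity via plasminogen activation per viability signal from cell pellet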
T5 sequence (P10520 whole entry): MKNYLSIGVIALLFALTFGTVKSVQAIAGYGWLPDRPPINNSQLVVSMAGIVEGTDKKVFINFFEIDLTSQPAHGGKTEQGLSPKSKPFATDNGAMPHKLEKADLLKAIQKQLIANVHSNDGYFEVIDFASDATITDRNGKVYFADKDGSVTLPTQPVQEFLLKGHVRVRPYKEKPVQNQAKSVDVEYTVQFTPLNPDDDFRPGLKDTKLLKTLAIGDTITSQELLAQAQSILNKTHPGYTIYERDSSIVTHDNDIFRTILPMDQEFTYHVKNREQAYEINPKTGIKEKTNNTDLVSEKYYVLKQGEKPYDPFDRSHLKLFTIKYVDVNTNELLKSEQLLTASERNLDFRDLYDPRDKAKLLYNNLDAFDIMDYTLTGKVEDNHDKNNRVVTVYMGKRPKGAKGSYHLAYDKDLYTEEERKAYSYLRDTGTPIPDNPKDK

[9] = tested on: Streptococcus; assay: GAS UMAA2166 growth inhibition – luminescence, BacTiterGlo, counter-screen for streptokinase expression inhibitor project, dose response (AID 1915); type: functional, organism-based;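 further: potency for reduction of bacterial viability or growth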
[10] = tested on: Streptococcus sp. 'group A'; assay: Streptococcus pyogenes SK(-)GAS viability under kanamycin – luminescence, BacTiterGlo, confirmation, counter-screen for streptokinase expression inhibitor project, dose response (AID 1900); type: functional, organism-based

In the case of `CC(C)(C)OC(=O)N1CC=C2C(C#N)=C(N)C(C#N)(C#N)C(c3cccs3)C2C1` (centres undefined), the AC50 [1] is reported as > 380 µM (inactive) and the EC50 [2] is reported as 5.1 µM (active).
For `Cc1cccc(N2CCN(C(=O)c3ccc(CNc4c(N5CCC(C)CC5)c(=O)c4=O)cc3)CC2C)c1` (centres undefined), the IC50 [3] was 14.5 µM (active).
In the case of `COc1ccccc1C(=O)Nc1nnc(C)s1`, the EC50 [4] is reported as 0.108 µM (active), the EC50 [5] is reported as 4.92 µM (active) and the EC50 [6] is reported as 26.3 µM (active).
In the case of `CCCOc1ccc(-c2c(=O)n(O)c3ccccc3[n+]2[O-])cc1`, the EC50 [4] is reported as 10.1 µM (active), the EC50 [5] is reported as 11.6 µM (active) and the EC50 [6] is reported as 97.6 µM (active).
With `COC(=O)c1nnn(CC(=O)NC(=O)Nc2ccc(F)cc2)c1C(=O)OC` the EC50 [7] was > 260 µM (inactive).
In the case of `Cc1cc(C)c(Cn2c3ccccc3c3cnn(CC(=O)NCCN4CCOCC4)c(=O)c32)c(C)c1`, the IC50 [3] is reported as 15.8 µM (active).
For `CC(C)(C)C(=O)Nc1scc(-c2ccc(-c3ccccc3)cc2)c1C(=O)O`, the IC50 [3] was 14.5 µM (active).
For `O=S(=O)(Nc1ccc(-n2cnnn2)cc1)c1ccc(F)c(F)c1F`, the AC50 [1] was > 380 µM (inactive) and the EC50 [2] was > 380 µM (inactive).
With `COc1ccc2oc(=O)c(-c3nnc(NCc4ccco4)s3)cc2c1` the EC50 [4] was 23.1 µM (active), the EC50 [5] was 78.7 µM (active) and the EC50 [6] was 1.91 µM (active).
With `CC(C)Cn1c(=O)c2c(nc3n2CCCN3CCc2ccccc2)n(C)c1=O` the IC50 [3] was 13.2 µM (active).
For `CCCCCC(=O)Cc1cc(O)cc2c1C(=O)Oc1cc(O)c(C(=O)O)c(CCCCC)c1O2` [PHYSODIC ACID], the EC50 [8] was 15.9 µM (active), the EC50 [9] was > 150 µM (not active) and the AC50 [1] was 2.05 µM (active). For the same compound, the EC50 [10] was 2.36 µM (active) and the EC50 [2] was 3.23 µM (active).
In the case of `O=C1C=C(c2ccccc2)CC(/C=C/c2ccccc2)C1` (centres undefined), the EC50 [7] is reported as > 260 µM (inactive).
In the case of `O=C(Cc1c(O)c2ccccc2[nH]c1=O)NCc1ccccc1`, the EC50 [7] is reported as > 260 µM (inactive).
For `CC(CC#CCN1CCOCC1)OCCC#N` (centres undefined), the EC50 [7] was > 260 µM (inactive).
With `Cc1cccc(C(=O)Nc2cccc(OCC(=O)O)c2)c1` the IC50 [3] was 7.59 µM (active).
For `COc1ccc(NC(=O)COc2cccc3c2CCN(Cc2cccnc2)C3=O)c(OC)c1`, the EC50 [7] was > 260 µM (inactive).
With `Cc1ccccc1Nc1c(-c2ccc(N3CCOCC3)cc2)nc2cnccn12` the EC50 [4] was 15 µM (active), the EC50 [5] was 19.2 µM (active) and the EC50 [6] was 16.6 µM (active).
For `C[C@@H]1OC(Nc2ccc(N=Nc3ccccc3)cc2)[C@H](O)[C@H](O)[C@H]1O` (some centres undefined), the EC50 [4] was 16.9 µM (active), the EC50 [5] was 54.8 µM (active) and the EC50 [6] was 11.1 µM (active).
With `CC1CCc2c(c3ccccc3n2C(=O)CCl)C1` (centres undefined) the AC50 [1] was > 380 µM (inactive) and the EC50 [2] was 0.751 µM (active).
In the case of `Cc1cccc(C(=O)NC2C(=O)NNC2c2ccc(Cl)cc2)c1` (centres undefined), the AC50 [1] is reported as 18.7 µM (active) and the EC50 [2] is reported as 18.9 µM (active).
With `CN1C(=O)S/C(=C\c2ccc(-n3cncn3)cc2)C1=O` the EC50 [4] was 59.6 µM (active), the EC50 [5] was 32.4 µM (active) and the EC50 [6] was > 120 µM (not active).
For `CCOc1ccc(NC(c2ccccn2)c2oc(CO)cc(=O)c2O)cc1` (centres undefined), the EC50 [5] was 0.175 µM (active) and the EC50 [6] was 22.2 µM (active).
With `Cc1cccc2cc3c(nc12)S/C(=N/CC1CCCO1)N(Cc1ccco1)C3` (centres undefined) the EC50 [7] was 44.6 µM (active).
For `CSc1ccc(/C=N\Nc2nncn2N)cc1`, the EC50 [7] was 141 µM (active).
For `Cc1n[nH]c(O)c1/C=N/Cc1cccs1`, the EC50 [7] was > 260 µM (inactive).
With `COc1cc(C2C(C#N)=C(N)Oc3[nH]nc(C)c32)ccc1OC(=O)c1ccccc1` (centres undefined) the AC50 [1] was 20.3 µM (active) and the EC50 [2] was 17.3 µM (active).
For `CCN1CCCC1CNC(=O)c1ccc2c(c1)N(Cc1ccccc1F)C(=O)c1ccccc1S2(=O)=O` (centres undefined), the IC50 [3] was 11.2 µM (active).
For `CCC(C)(C)n1nnnc1C(c1cc2cc(C)cc(C)c2nc1O)N1CCN(Cc2ccc3c(c2)OCO3)CC1` (centres undefined), the EC50 [7] was > 260 µM (inactive).
With `Cc1cc(-c2nnc(-c3cccc(Cl)c3)o2)no1` the EC50 [4] was 0.132 µM (active), the EC50 [5] was 0.318 µM (active) and the EC50 [6] was 119 µM (active).
In the case of `O=S(=O)(Nc1ccc(-c2nnc3n2CCCCC3)cc1)c1ccc2nc(O)oc2c1`, the EC50 [7] is reported as > 260 µM (inactive).
